Assay results taken from patent US20170050957A1, “4-AMINO-6-(HETEROCYCLIC)PICOLINATES AND 6-AMINO-2-(HETEROCYCLIC)PYRIMIDINE-4-CARBOXYLATES AND THEIR USE AS HERBICIDES” (Dow AgroSciences LLC, priority 2013, published 2017).
Where two headings read alike, the source gives them in different places.

Columns and labels:
[1] = system: Key Broadleaf Weed and Crop Species; experiment: Post-emergent Test II herbicidal activity (Table 15); format: in vivo; conditions: post-emergence, 336 h, 14 d; for pest or weed control at 35 g/ha: 35 g ai/ha; for pest or weed control at 70 g/ha: 70 g ai/ha; for pest or weed control at 140 g/ha: 140 g ai/ha; for pest or weed control at 280 g/ha: 280 g ai/ha
Procedure, shortened: (§1)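 Visual injury rating (0 = none, 100 = complete kill) taken 14 d after treatment, relative to untreated plants. Compounds in acetone/DMSO with crop oil concentrate and Triton X-155 were track-sprayed at 187 L/ha onto seedlings at the first-second true leaf stage.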

[2] = system: Key Grass and Sedge Weeds as well as Grass Crops; experiment: Post-emergent Test II herbicidal activity (Table 16); format: in vivo; conditions: post-emergence, 336 h, 14 d; for pest or weed control at 35 g/ha: 35 g ai/ha; for pest or weed control at 70 g/ha: 70 g ai/ha; for pest or weed control at 140 g/ha: 140 g ai/ha; for pest or weed control at 280 g/ha: 280 g ai/ha
Procedure, shortened: as §1

[3] = Abutilon theophrasti, velvetleaf (Abutilon theophrasti), read-out: Visual Growth Reduction (%) 14 Days After Application, ABUTH
[4] = Amaranthus retroflexus, redroot pigweed (Amaranthus retroflexus), read-out: Visual Growth Reduction (%) 14 Days After Application, AMARE
[5] = Brassica napus, oilseed rape, canola (Brassica napus), read-out: Visual Growth Reduction (%) 14 Days After Application, BRSNN
[6] = Chenopodium album, lambsquarters (Chenopodium album), read-out: Visual Growth Reduction (%) 14 Days After Application, CHEAL
[7] = Euphorbia heterophylla, wild poinsettia (Euphorbia heterophylla), read-out: Visual Growth Reduction (%) 14 Days After Application, EPHHL
[8] = Helianthus annuus, sunflower (Helianthus annuus), read-out: Visual Growth Reduction (%) 14 Days After Application, HELAN
[9] = Cyperus esculentus, yellow nutsedge (Cyperus esculentus), read-out: Visual Growth Reduction (%) 14 Days After Application, CYPES
[10] = Echinochloa crus-galli, barnyardgrass (Echinochloa crus-galli), read-out: Visual Growth Reduction (%) 14 Days After Application, ECHCG
[11] = Oryza sativa, rice (Oryza sativa), read-out: Visual Growth Reduction (%) 14 Days After Application, ORYSA
[12] = Setaria faberi, giant foxtail (Setaria faberi), read-out: Visual Growth Reduction (%) 14 Days After Application, SETFA
[13] = Triticum aestivum, wheat, spring (Triticum aestivum), read-out: Visual Growth Reduction (%) 14 Days After Application, TRZAS
[14] = Zea mays, maize, corn (Zea mays), read-out: Visual Growth Reduction (%) 14 Days After Application, ZEAMX

SMILES: COC(=O)c1nc(-c2ccc3occc3c2)cc(N)c1Cl [Compound 2.03]
- melting point: 84 to 87 °C
- pest or weed control at 35 g/ha [1, 3]: 95 to 100%
- pest or weed control at 70 g/ha [1, 3]: 95 to 100%
- pest or weed control at 140 g/ha [1, 3]: 95 to 100%
- pest or weed control at 280 g/ha [1, 3]: 95 to 100%
- pest or weed control at 35 g/ha [1, 4]: 60 to 74%
- pest or weed control at 70 g/ha [1, 4]: 85 to 94%
- pest or weed control at 140 g/ha [1, 4]: 85 to 94%
- pest or weed control at 280 g/ha [1, 4]: 95 to 100%
- pest or weed control at 35 g/ha [1, 5]: 0 to 29%
- pest or weed control at 70 g/ha [1, 5]: 0 to 29%
- pest or weed control at 140 g/ha [1, 5]: 0 to 29%
- pest or weed control at 280 g/ha [1, 5]: 30 to 44%
- pest or weed control at 35 g/ha [1, 6]: 85 to 94%
- pest or weed control at 70 g/ha [1, 6]: 95 to 100%
- pest or weed control at 140 g/ha [1, 6]: 95 to 100%
- pest or weed control at 280 g/ha [1, 6]: 95 to 100%
- pest or weed control at 35 g/ha [1, 7]: 45 to 59%
- pest or weed control at 70 g/ha [1, 7]: 75 to 84%
- pest or weed control at 140 g/ha [1, 7]: 75 to 84%
- pest or weed control at 280 g/ha [1, 7]: 85 to 94%
- pest or weed control at 35 g/ha [1, 8]: 0 to 29%
- pest or weed control at 70 g/ha [1, 8]: 60 to 74%
- pest or weed control at 140 g/ha [1, 8]: 75 to 84%
- pest or weed control at 280 g/ha [1, 8]: 85 to 94%
- pest or weed control at 35 g/ha [2, 9]: 0 to 29%
- pest or weed control at 70 g/ha [2, 9]: 0 to 29%
- pest or weed control at 140 g/ha [2, 9]: 0 to 29%
- pest or weed control at 280 g/ha [2, 9]: 0 to 29%
- pest or weed control at 35 g/ha [2, 10]: 30 to 44%
- pest or weed control at 70 g/ha [2, 10]: 60 to 74%
- pest or weed control at 140 g/ha [2, 10]: 85 to 94%
- pest or weed control at 280 g/ha [2, 10]: 95 to 100%
- pest or weed control at 35 g/ha [2, 11]: 0 to 29%
- pest or weed control at 70 g/ha [2, 11]: 0 to 29%
- pest or weed control at 140 g/ha [2, 11]: 0 to 29%
- pest or weed control at 280 g/ha [2, 11]: 0 to 29%
- pest or weed control at 35 g/ha [2, 12]: 0 to 29%
- pest or weed control at 70 g/ha [2, 12]: 0 to 29%
- pest or weed control at 140 g/ha [2, 12]: 30 to 44%
- pest or weed control at 280 g/ha [2, 12]: 30 to 44%
- pest or weed control at 35 g/ha [2, 13]: 0 to 29%
- pest or weed control at 70 g/ha [2, 13]: 0 to 29%
- pest or weed control at 140 g/ha [2, 13]: 0 to 29%
- pest or weed control at 280 g/ha [2, 13]: 0 to 29%
- pest or weed control at 35 g/ha [2, 14]: 0 to 29%
- pest or weed control at 70 g/ha [2, 14]: 0 to 29%
- pest or weed control at 140 g/ha [2, 14]: 0 to 29%
- pest or weed control at 280 g/ha [2, 14]: 60 to 74%

SMILES: COC(=O)c1nc(-c2cc3ccoc3cc2F)cc(N)c1Cl [Compound 2.04]
- melting point: 98 °C
- pest or weed control at 35 g/ha [1, 3]: 75 to 84%
- pest or weed control at 70 g/ha [1, 3]: 85 to 94%
- pest or weed control at 140 g/ha [1, 3]: 95 to 100%
- pest or weed control at 35 g/ha [1, 4]: 95 to 100%
- pest or weed control at 70 g/ha [1, 4]: 95 to 100%
- pest or weed control at 140 g/ha [1, 4]: 95 to 100%
- pest or weed control at 35 g/ha [1, 5]: 0 to 29%
- pest or weed control at 70 g/ha [1, 5]: 0 to 29%
- pest or weed control at 140 g/ha [1, 5]: 30 to 44%
- pest or weed control at 35 g/ha [1, 6]: 95 to 100%
- pest or weed control at 70 g/ha [1, 6]: 95 to 100%
- pest or weed control at 140 g/ha [1, 6]: 95 to 100%
- pest or weed control at 35 g/ha [1, 7]: 95 to 100%
- pest or weed control at 70 g/ha [1, 7]: 95 to 100%
- pest or weed control at 140 g/ha [1, 7]: 95 to 100%
- pest or weed control at 35 g/ha [1, 8]: 0 to 29%
- pest or weed control at 70 g/ha [1, 8]: 0 to 29%
- pest or weed control at 140 g/ha [1, 8]: 30 to 44%
- pest or weed control at 35 g/ha [2, 9]: 0 to 29%
- pest or weed control at 70 g/ha [2, 9]: 0 to 29%
- pest or weed control at 140 g/ha [2, 9]: 30 to 44%
- pest or weed control at 35 g/ha [2, 10]: 60 to 74%
- pest or weed control at 70 g/ha [2, 10]: 95 to 100%
- pest or weed control at 140 g/ha [2, 10]: 95 to 100%
- pest or weed control at 35 g/ha [2, 11]: 0 to 29%
- pest or weed control at 70 g/ha [2, 11]: 0 to 29%
- pest or weed control at 140 g/ha [2, 11]: 0 to 29%
- pest or weed control at 35 g/ha [2, 12]: 60 to 74%
- pest or weed control at 70 g/ha [2, 12]: 75 to 84%
- pest or weed control at 140 g/ha [2, 12]: 85 to 94%
- pest or weed control at 35 g/ha [2, 13]: 0 to 29%
- pest or weed control at 70 g/ha [2, 13]: 30 to 44%
- pest or weed control at 140 g/ha [2, 13]: 45 to 59%
- pest or weed control at 35 g/ha [2, 14]: 60 to 74%
- pest or weed control at 70 g/ha [2, 14]: 75 to 84%
- pest or weed control at 140 g/ha [2, 14]: 85 to 94%
